Measurements from patent US20120201981A1, “COMBINATIONS OF BIOLOGICAL CONTROL AGENTS WITH A NEMATICIDAL SEED COATING” (priority 2006, published 2012).

How the values were obtained:
[1] = tested on: Meloidogyne incognita race 3; experiment: Root-knot nematode trial on tomato, abamectin seed coating with soil application of Pasteuria penetrans
Method: Abamectin coated (0.3 mg a.i./seed) and non-treated tomato seed (cv. Kirby) was provided by Syngenta Crop Protection. The treatments were seeded in individual seedling trays. After 3 weeks incubation in a greenhouse at 25°±2° C., the seedlings were transplanted into 1500 cm^3 pots containing the test soil. The soil was collected from a field at the UC South Coast Research and Extension Center at Irvine (San Emigdio sandy loam, 12.5% sand, 12% clay, 75.4% silt, 0.45 OM, pH 7.4). To improve soil aeration and irrigation water drainage, ⅔ of the soil was mixed with ⅓ (v/v) plaster sand. The soil was pasteurized and infested with root-knot nematodes. Meloidogyne incognita race 3 inoculum was reared on tomato cv. UC 82 for ca. three months in greenhouse cultures. Nematode eggs were harvested from the root systems by a modification of a bleach/sieving method (Hussey and Barker, Plant Disease Reporter, 57:1025-1028 (1973)) and used to infested the test soil with 1000 eggs of M. incognita race 3 per 100 cm^3. Pasteuria penetrans was obtained from the University of California Riverside Nematology culture collection. The inoculum was reared on root-knot nematode-infested tomato plants. In the Pasteuria treatments, the soil was amended with approximately 1×10^5 endospores/g soil. The trial was arranged as a complete randomized block with 6 replications and incubated in a greenhouse at 26°±2° C. with ambient light. All pots were fertilized with Osmocote 14-14-14 (label rate for tomato production). Irrigation was applied as needed. Two months after transplanting, plant tops were cut off at the soil level, oven dried and weighted. Roots were rated for galling on a scale of 0-10 (Zeck, Bayer AG, Pflanzenschutz-Nachrichten, 24:141-144 (1971)).

[2] = tested on: root-knot nematodes, Meloidogyne incognita race 1; experiment: Cucumber green house trial, cucumber seed coating trial 2; format: in vivo; conditions: rkn, mean ± SE
Method: (§1) Pots (10-cm diameter) were filled with 250 g (dry weight) steam-pasteurized river bottom sand. Ten treatments with 6 replications were prepared (Table 1). The fungal antagonist Pochonia chlamydosporia was grown on autoclaved moist millet seed for three weeks at 22° C. Colonized millet was dried in a laminar flow hood, and stored aseptically at 4° C. until use. For soil inoculation, P. chlamydosporia-colonized millet was thoroughly mixed with the sand. Population density of the fungus was approximately 2000 chlamydospores/cc soil for rate 1 and 4000 chlamydospores/cc soil for rate 2.
(§2) The nematode inoculum was raised during the previous 3 months on tomato plants (Lycopersicum esculentum cv. Tropic) in the greenhouse. Nematode eggs were obtained by standard bleach/sieving extraction. With the exception of the first treatment, each pot was infested with ca. 30000 eggs of M. incognita. This is a typical infestation level for nematicide tests resulting in high disease pressure (expected gall rating for non-treated control at 8 weeks was approximately 7 on a scale of 0-10 (Zeck, Pflanzenschutz-Nachrichten, Bayer AG, 24:141-144, 1971). Cucumber seeds (Cucumis sativus L. cv. Straight Eight, Burpee Seed Co.) were coated with either0.1 mg or 0.3 mg abamectin/seed or received no further treatment. Each pot received slow-release fertilizer (Osmocote Vegetable and Bedding Plant Food, 14-14-14, The Scotts Company) recommended for tomato production. The pots were arranged in a randomized complete block design in a greenhouse at ca. 24°±3° C. and ambient lighting. Irrigation was applied daily as needed. Three and eight weeks after seeding plant height or main vine length was determined. Eight weeks after seeding the trial was terminated and the plant tops were cut off. They were placed in a drying oven overnight and their weight was determined. The roots were placed in eryoglaucin solution overnight and the stained egg masses of the root-knot nematodes were counted. Root galling was rated on a scale of 0-10 (0=no galling). The trial was repeated once.

[3] = tested on: root-knot nematodes, Meloidogyne incognita race 1; experiment: Cucumber green house trial, cucumber seed coating trial 1; format: in vivo; conditions: for main vine length (cm) @ 8 weeks / number egg masses/root / plant dry weight (g) @ 8 weeks / plant height (mm) @ 3 weeks / root galling @ 8 weeks: cucumber, rkn, mean ± SE; for root galling @ 8 weeks: scale 0-10 (0=no galling)
Method: as §1, §2

M. incognita race 1 = experiment: Tomato miniplot field trial; format: in vivo, Meloidogyne incognita; conditions: P. chlamydosporia 4000 chlamydospores/cm^3 substrate
Method: Nine miniplots (3 m diameter, 12 cm deep) were each filled with approximately 350000-cm^3 field soil (sandy loam, pH 7.2) obtained from an adjacent field with no significant infestation of plant-parasitic nematodes. Tomato seedlings (Lycopersicum esculentum cv. Tiny Tim) were raised from abamectin-treated seed (0.3 mg a.i./seed) or from Apron/Maxim-treated seed. They were seeded in seedling trays with commercial transplant substrate (Sunshine mix). The substrate was either non-amended or amended with P. chlamydosporia (4000 chlamydospores/cm^3 substrate). After 3 weeks in a greenhouse, the seedlings were transplanted into the 9 miniplots. Each plot was a randomized block with 4 treatments and three plants per treatment. Each planting area was infested by distributing 10,000 eggs of M. incognita race 1 into three 5 cm deep holes approximately 5 cm from each transplant. The plots were irrigated via low-pressure irrigation and fertilized according to local standard. After approximately 10 weeks the plants set fruit and were harvested three times during the following 3 weeks. Number of fruits and weight were taken. All data were subject to ANOVA and mean separation with Fisher's LSD (P=0.05).

[4] = tested on: root-knot nematodes, Meloidogyne incognita race 1; experiment: Tomato green house trials (data of two trials combined); format: in vivo; conditions: for J2/50 ml soil / Plant dry weight(g) / Plant height(cm) / egg count/root / egg masses/root / Root galling / fruit weight (g) / number of fruits/plant / total fruit weight/plant (g): tomato, rkn, mean ± SE; for J2/50 ml soil / Plant dry weight(g) / Plant height(cm) / egg count/root / egg masses/root / Root galling: trial termination; for Root galling: scale from 0-10; for fruit weight (g): average fruit weight
Method: The greenhouse trials were conducted in pulp pots (10-cm diameter) filled with steam-pasteurized sand (250 cm^3). The biological control organism (BCO) P. chlamydosporia was grown as described above. P. chlamydosporium-inoculated millet seed were washed (1:2 weight/volume millet seed and sterile distilled water, 2 min shaking in electric blender) and passed through a 100-mesh sieve to remove the millet from the fungal chlamydospores. These served as the inoculum and were counted with a counting chamber (Fuchs-Rosenthal). The chlamydospores were thoroughly mixed with the sand. Population density of fungus was approximately 2000 chlamydospores/g soil for rate 1 and 4000 chlamydospores/g soil for rate 2 (Table 1). Tomato seeds (Lycopersicum esculentum cv. Tiny Tim) were coated with either 0.1 mg or 0.3 mg abamectin/seed or received no further treatment (Table 1). The tomato seeds were sown into seeding trays with commercial seedling substrate and after 2 weeks the plants were transplanted into 10-cm pulp pots. With the exception of the first treatment, each pot was infested with ca. 30000 eggs of M. incognita. Egg hatch rate was approximately 10% on Baerman funnels at 26° C. for 5 days. Each pot received slow release fertilizer (Osmocote Vegetable and Bedding Plant food, 14-14-14, The Scotts Company). Pots were arranged in a randomized complete block design with 6 replications per treatment and incubated in greenhouse at ca. 24±3C and ambient lighting. Plants were watered daily as needed. Plant height was determined and the shoots were cut off at the end of the trial. Shoots be placed in a drying oven at 69° C. for 72 h and the weight of each plant was determined. The extent of root galling was assessed on a scale from 0-10 (Zeck, 1971, supra).
Nematode populations were determined by counting egg masses (=number of fecundate females), eggs and second-stage juvenile (J2). The roots were placed in eryoglaucin solution overnight to stain egg masses of the root-knot nematodes which enabled their enumeration (Omwega et al., 1988). The eggs were released from egg masses through a modified bleach/sieving extraction technique (Hussey and Barker, 1973). Each week, ripe (red) tomato fruits were picked off, and the number and weight were recorded. Picking was continued until fruit production seized. The trial was repeated once. All data were subject to analysis of variation with SuperANOVA (Abacus Concepts, 1989, Berkeley, Calif.). If appropriate, Fisher's Protected Least Significant Difference (LSD) was used to separate means at P=0.05.

[5] = tomato cv. Kirby, two months after transplanting, mean ± SE, abamectin seed coated 0.3 mg a.i./seed, P. penetrans soil incorporated 1 × 10E5/g soil
[6] = abamectin seed coating 0.1 mg/seed
[7] = abamectin seed coating 0.3 mg/seed
[8] = tomato miniplots, 10,000 eggs per planting area, mean ± SE, abamectin 0.3 mg/seed

In the case of abamectin, the J2/50 cc soil ([1]; tomato cv. Kirby, trial termination, mean ± SE, abamectin seed coated 0.3 mg a.i./seed, P. penetrans soil incorporated 1 × 10E5/g soil) was 95 ± 15 b, the “plant top dry weight (g)” value [1, 5] was 31.3 ± 1.8 ab g and the “root gall rating (0-10)” value [1, 5] was 3.3 ± 0.3 ab. For the same substance, the “root galling (in words)” value ([1]; tomato, abamectin 0.3 mg a.i./seed, P. penetrans 1×10^5 endospores/g soil) was “reduced galling by approximately two rating classes”, the “main vine length (cm) @ 8 weeks” value [2, 6] was 146.2 ± 9.8 c cm and the “number egg masses/root system @ 8 weeks” value [2, 6] was 80.8 ± 27.8 b. The “plant dry weight (g) @ 8 weeks” value [2, 6] was 6.4 ± 0.5 c g, the “plant height (mm) @ 3 weeks” value [2, 6] was 96.2 ± 6.4 bcd mm and the “root galling @ 8 weeks (scale 0-10)” value [2, 6] was 5.3 ± 0.2 abc. The “main vine length (cm) @ 8 weeks” value [2, 7] was 131.3 ± 6.2 bc cm, the “number egg masses/root system @ 8 weeks” value [2, 7] was 36.7 ± 4.0 a and the “plant dry weight (g) @ 8 weeks” value [2, 7] was 6.0 ± 0.3 bc g. For the same substance, the “plant height (mm) @ 3 weeks” value [2, 7] was 105.8 ± 5.3 cde mm, the “root galling @ 8 weeks (scale 0-10)” value [2, 7] was 5.0 ± 0.4 ab and the “plant growth compared to the non-treated control plants (in words)” value ([3]; cucumber trial 1, 0.3 mg/seed rate of abamectin) was “significant increases in early plant growth as well as in plant dry weight and main vine length”. For the same substance, the “plant growth and root galling (in words)” value ([3]; cucumber trial 1, low rate of abamectin) was “neither plant growth was improved nor root galling was significantly reduced”, the “main vine length (cm) @ 8 weeks” value [3, 6] was 100.7 ± 8.8 ab cm and the number egg masses/root [3, 6] was 108.2 ± 14.0 ab. For the same substance, the “plant dry weight (g) @ 8 weeks” value [3, 6] was 4.2 ± 0.4 a g, the “plant height (mm) @ 3 weeks” value [3, 6] was 70.8 ± 2.3 a mm and the “main vine length (cm) @ 8 weeks” value [3, 7] was 127.8 ± 11.9 cde cm. For the same substance, the number egg masses/root [3, 7] was 85.8 ± 12.8 ab, the “plant dry weight (g) @ 8 weeks” value [3, 7] was 5.7 ± 0.4 bc g and the “plant height (mm) @ 3 weeks” value [3, 7] was 90.8 ± 7.1 bc mm. For the same substance, the “root galling @ 8 weeks” value [3, 6] was 6.3 ± 0.6 de, the “root galling @ 8 weeks” value [3, 7] was 5.8 ± 0.4 cde and the “yield (in words)” value (M. incognita race 1; tomato miniplot field trial, abamectin 0.3 mg a.i./seed) was “increased the yield significantly”. For the same substance, the M. incognita eggs/plant (M. incognita race 1; [8]) was 171,400 ± 37,100 a, the number fruits/plant (M. incognita race 1; [8]) was 69.0 ± 3.2 b and the “root galling at harvest” value (M. incognita race 1; [8]) was 4.5 ± 0.2 c. The total fruit weight/plant (M. incognita race 1; [8]) was 290.6 ± 12.6 b, the “root galling reduction (in words)” value ([4]; tomato greenhouse, abamectin seed coating alone) was “approximately two rating classes below the check” and the J2/50 ml soil [4, 6] was 20.3 ± 4.3ab. The “Plant dry weight(g)” value [4, 6] was 5.24 ± 0.35b g, the “Plant height(cm)” value [4, 6] was 27.33 ± 0.72cd cm and the egg count/root [4, 6] was 346133 ± 39003 days. The egg masses/root [4, 6] was 454.2 ± 62.7c, the J2/50 ml soil [4, 7] was 7.2 ± 5.4ab and the “Plant dry weight(g)” value [4, 7] was 6.31 ± 0.21c g. For the same substance, the “Plant height(cm)” value [4, 7] was 26.17 ± 2.14bc cm, the egg count/root [4, 7] was 205867 ± 66056bc and the egg masses/root [4, 7] was 381.7 ± 120.3c. The Root galling [4, 6] was 6.67 ± 0.21ef, the Root galling [4, 7] was 5.00 ± 0.52c and the “fruit weight (g)” value [4, 6] was 5.19 ± 0.18bc g. The “fruit weight (g)” value [4, 7] was 6.00 ± 0.14c g, the number of fruits/plant [4, 6] was 31.0 ± 4.6bcd and the “total fruit weight/plant (g)” value [4, 6] was 160.3 ± 22.8bc g. The number of fruits/plant [4, 7] was 40.5 ± 1.5cde and the “total fruit weight/plant (g)” value [4, 7] was 243.3 ± 11.8 g·days.
